Measured values reported in patent US20230131402A1, “SPIRO-LACTAM NMDA RECEPTOR MODULATORS AND USES THEREOF” (Aptinyx Inc., priority 2016, published 2023).
Like-named read-outs stand apart in the source and are kept apart here.

Columns and labels:
NMDAR2A = target: T1, NMDAR2A (Homo sapiens, UniProt Q12879); assay: [3H]MK-801 binding, NMDAR2A expressing HEK cell membranes; type: biochemical; details: for Emax: read-out: NMDAR2A A: % maximal [3H]MK-801 binding relative to 1 mM glycine
T1 construct: expressed in transfected cells; host or cells: HEK cells (membrane extract)
T1 sequence (Q12879 23-1464, species assumed, other chains not shown): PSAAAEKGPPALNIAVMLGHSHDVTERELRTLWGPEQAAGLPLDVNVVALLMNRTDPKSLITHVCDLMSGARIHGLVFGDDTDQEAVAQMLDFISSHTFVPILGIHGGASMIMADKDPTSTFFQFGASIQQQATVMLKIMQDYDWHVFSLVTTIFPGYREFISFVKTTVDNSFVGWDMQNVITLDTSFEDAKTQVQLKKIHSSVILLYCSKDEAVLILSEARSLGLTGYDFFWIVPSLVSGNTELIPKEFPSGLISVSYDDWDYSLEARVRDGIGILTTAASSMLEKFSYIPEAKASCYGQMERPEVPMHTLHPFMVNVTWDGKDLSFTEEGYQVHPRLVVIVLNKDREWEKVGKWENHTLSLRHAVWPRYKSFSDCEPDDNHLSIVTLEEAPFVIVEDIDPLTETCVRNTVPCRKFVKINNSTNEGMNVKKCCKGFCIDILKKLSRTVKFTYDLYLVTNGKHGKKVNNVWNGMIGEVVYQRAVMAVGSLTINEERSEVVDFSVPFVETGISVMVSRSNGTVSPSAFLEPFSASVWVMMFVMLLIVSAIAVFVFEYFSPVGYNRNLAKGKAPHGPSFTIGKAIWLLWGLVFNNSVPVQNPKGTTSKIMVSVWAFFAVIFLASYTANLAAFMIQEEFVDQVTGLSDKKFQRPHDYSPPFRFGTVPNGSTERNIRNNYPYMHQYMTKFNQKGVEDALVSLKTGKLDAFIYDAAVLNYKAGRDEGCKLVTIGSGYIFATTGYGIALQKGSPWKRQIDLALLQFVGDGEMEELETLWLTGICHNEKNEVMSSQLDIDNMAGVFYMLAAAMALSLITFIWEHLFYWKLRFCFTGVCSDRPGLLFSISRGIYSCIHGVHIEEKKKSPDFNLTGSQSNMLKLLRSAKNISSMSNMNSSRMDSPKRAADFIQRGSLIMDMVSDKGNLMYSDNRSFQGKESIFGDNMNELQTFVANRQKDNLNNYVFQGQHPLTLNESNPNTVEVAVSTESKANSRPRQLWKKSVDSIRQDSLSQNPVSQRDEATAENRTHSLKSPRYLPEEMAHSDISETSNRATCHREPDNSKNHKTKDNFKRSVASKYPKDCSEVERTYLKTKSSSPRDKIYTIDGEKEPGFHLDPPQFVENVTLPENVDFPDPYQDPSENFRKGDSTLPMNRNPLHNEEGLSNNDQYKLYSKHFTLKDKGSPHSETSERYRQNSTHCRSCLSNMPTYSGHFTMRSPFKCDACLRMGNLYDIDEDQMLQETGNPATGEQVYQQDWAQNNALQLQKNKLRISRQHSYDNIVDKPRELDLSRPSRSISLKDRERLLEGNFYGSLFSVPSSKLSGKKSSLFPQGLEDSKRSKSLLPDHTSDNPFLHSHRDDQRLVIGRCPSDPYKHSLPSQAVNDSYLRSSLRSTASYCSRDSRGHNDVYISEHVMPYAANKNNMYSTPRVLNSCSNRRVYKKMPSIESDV
Description: (§1) Assays were conducted as described by Moskal et al., “GLYX-13: a monoclonal antibody-derived peptide that acts as an N-methyl-D-aspartate receptor modulator,” Neuropharmacology, 49, 1077-87, 2005. These studies were designed to determine if the test compounds act to facilitate NMDAR activation in NMDAR2A, NMDAR2B, NMDAR2C or NMDAR2D expressing HEK cell membranes as measured by increases in [^3H]MK-801 binding.
(§2) In the assay, 300 μg of NMDAR expressing HEK cell membrane extract protein was preincubated for 15 minutes at 25° C. in the presence of saturating concentrations of glutamate (50 μM) and varying concentrations of test compound (1×10^−15M−1×10^−7M), or 1 mM glycine. Following the addition of 0.3 μCi of [^3H]MK-801 (22.5 Ci/mmol), reactions were again incubated for 15 minutes at 25° C. (nonequilibrium conditions). Bound and free [^3H]MK-801 were separated via rapid filtration using a Brandel apparatus.
(§3) In analyzing the data, the DPM (disintegrations per minute) of [^3H]MK-801 remaining on the filter were measured for each concentration of test compound or for 1 mM glycine. The DPM values for each concentration of a ligand (N=2) were averaged. The baseline value was determined from the best fit curve of the DPM values modeled using the GraphPad program and the log(agonist) vs. response(three parameters) algorithm was then subtracted from all points in the dataset. The % maximal [^3H]MK-801 binding was then calculated relative to that of 1 mM glycine: all baseline subtracted DPM values were divided by the average value for 1 mM glycine. The EC50 and % maximal activity were then obtained from the best fit curve of the % maximal [^3H]MK-801 binding data modelled using the GraphPad program and the log(agonist) vs. response(three parameters) algorithm.
(§4) The tables below summarize the results for the wild type NMDAR agonists NMDAR2A, NMDAR2B, NMDAR2C, and NMDAR2D, and whether the compound is not an agonist (−), is an agonist (+), or is a strong agonist (++), where column A is based on the % maximal [^3H]MK-801 binding relative to 1 mM glycine (−=0; <100%=+; and >100%=++); and column B is based on log EC50 values (0=−; ≥1×10^−9M (e.g., −8)=+; and <1×10^−9M (e.g., −10)=++).

NMDAR2B = target: T2, NMDAR2B (Homo sapiens, UniProt Q13224); assay: [3H]MK-801 binding, NMDAR2B expressing HEK cell membranes; type: biochemical
T2 construct: expressed in transfected cells; host or cells: HEK cells (membrane extract)
T2 sequence (Q13224 27-1484, species assumed, other chains not shown): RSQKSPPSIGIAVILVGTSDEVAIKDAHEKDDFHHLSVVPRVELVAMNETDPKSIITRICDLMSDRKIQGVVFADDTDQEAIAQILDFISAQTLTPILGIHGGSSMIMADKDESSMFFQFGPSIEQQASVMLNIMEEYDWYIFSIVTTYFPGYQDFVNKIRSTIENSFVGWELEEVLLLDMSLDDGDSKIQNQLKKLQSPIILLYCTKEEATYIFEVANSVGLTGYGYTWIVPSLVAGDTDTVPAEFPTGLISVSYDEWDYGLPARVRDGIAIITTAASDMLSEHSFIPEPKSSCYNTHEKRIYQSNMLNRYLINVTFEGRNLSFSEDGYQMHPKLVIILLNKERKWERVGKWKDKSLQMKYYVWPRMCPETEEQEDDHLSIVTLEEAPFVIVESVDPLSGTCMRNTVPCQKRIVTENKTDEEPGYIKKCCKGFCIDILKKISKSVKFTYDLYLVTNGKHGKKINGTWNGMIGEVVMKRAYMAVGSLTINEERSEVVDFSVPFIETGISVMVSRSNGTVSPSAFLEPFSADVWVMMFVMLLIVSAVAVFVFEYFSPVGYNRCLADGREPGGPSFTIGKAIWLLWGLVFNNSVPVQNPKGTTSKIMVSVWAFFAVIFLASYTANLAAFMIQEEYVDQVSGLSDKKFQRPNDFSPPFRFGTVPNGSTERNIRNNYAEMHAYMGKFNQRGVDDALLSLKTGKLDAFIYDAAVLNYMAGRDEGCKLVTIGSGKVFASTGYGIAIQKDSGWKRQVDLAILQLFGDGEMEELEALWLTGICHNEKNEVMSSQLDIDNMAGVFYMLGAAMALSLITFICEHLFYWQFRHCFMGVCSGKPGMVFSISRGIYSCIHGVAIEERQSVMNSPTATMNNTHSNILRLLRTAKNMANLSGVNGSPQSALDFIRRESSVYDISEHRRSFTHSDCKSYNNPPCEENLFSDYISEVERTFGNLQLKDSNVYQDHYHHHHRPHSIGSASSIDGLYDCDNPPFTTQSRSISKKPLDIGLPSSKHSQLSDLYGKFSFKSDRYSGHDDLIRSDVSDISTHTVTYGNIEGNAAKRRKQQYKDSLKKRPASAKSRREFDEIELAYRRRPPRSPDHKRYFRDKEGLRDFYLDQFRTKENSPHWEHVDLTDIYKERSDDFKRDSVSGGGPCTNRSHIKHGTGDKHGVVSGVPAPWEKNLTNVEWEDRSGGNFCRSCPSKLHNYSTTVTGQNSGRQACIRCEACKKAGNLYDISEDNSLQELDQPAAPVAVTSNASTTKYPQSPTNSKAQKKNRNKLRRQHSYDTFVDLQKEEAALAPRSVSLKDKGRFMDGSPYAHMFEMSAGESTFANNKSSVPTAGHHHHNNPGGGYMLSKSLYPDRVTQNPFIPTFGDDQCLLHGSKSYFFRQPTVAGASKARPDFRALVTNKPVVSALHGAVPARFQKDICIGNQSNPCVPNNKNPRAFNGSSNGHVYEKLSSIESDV
Description: as §1, §2, §3, §4

NMDAR2D = target: T3, NMDAR2D (Homo sapiens, UniProt O15399+Q05586); assay: [3H]MK-801 binding, NMDAR2D expressing HEK cell membranes; type: biochemical; details: 50 μM glutamate; for Emax: read-out: NMDAR2D A: % maximal [3H]MK-801 binding relative to 1 mM glycine; for EC50: read-out: NMDAR2D B: log EC50 (converted)
T3 construct: expressed in transfected cells; host or cells: HEK cells (membrane extract)
T3 sequence (O15399 28-1336, species assumed, other chains not shown): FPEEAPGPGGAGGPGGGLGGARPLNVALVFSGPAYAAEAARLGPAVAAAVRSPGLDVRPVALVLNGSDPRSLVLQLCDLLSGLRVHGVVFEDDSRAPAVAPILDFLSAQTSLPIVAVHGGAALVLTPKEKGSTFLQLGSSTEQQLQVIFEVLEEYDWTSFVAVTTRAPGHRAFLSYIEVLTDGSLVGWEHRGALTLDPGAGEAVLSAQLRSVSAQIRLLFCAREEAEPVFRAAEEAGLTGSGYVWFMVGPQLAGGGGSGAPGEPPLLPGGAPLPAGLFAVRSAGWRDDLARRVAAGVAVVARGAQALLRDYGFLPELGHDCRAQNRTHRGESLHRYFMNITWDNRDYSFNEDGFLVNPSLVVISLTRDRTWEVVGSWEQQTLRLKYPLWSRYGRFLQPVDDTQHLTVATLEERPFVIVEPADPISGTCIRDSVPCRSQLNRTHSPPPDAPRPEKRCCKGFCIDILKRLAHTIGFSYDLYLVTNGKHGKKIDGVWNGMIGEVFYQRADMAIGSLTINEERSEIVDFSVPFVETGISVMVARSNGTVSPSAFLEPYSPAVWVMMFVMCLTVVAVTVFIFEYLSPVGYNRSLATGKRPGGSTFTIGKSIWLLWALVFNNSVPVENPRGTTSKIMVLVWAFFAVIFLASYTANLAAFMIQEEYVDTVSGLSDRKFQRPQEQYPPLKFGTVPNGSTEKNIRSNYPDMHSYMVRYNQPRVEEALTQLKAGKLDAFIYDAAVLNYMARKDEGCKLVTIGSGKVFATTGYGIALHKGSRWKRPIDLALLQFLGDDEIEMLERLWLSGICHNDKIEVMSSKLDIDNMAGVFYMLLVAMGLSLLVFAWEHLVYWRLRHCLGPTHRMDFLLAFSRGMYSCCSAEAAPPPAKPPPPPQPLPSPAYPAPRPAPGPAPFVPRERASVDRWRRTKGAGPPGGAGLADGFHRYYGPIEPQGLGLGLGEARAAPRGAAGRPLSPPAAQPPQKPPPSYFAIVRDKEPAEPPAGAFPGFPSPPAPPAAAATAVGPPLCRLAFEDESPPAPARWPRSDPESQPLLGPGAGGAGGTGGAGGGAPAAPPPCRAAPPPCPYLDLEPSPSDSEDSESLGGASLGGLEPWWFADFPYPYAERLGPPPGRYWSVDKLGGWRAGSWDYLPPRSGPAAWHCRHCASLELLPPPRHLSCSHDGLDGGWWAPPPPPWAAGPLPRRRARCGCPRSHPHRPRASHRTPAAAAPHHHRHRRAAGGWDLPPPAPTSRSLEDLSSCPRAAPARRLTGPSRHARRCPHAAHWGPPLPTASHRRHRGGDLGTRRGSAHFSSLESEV
Description: as §1, §2, §3, §4

IV pharmacokinetics = type: in vivo, Sprague Dawley rats; details: Sprague Dawley, rat, in vivo, iv, 2 mg/kg, normal saline (compounds marked * in 1% NMP and 99% normal saline); for C0: read-out: C0; for Vd: read-out: Vss
Excerpt: The table below summarizes the results of the IV pharmacokinetics.

[1] = Oral pharmacokinetics (plasma, brain, CSF); details: rat, 10 mg/kg, per os; for bioavailability: % F; for AUC(0-t): AUClast
Description: Plasma, brain, and CSF samples were analyzed at various time points over a 24 hour period.

[2] = tested on: rats' response (reduced floating time); assay: Porsolt forced swim test; type: in vivo, Sprague Dawley rats
Description: A non-clinical in vivo pharmacology study (Porsolt assay) was performed to measure antidepressant-like effects. A negative control (0.5% sodium carboxymethyl cellulose in 0.9% sterile saline vehicle) and a positive control (fluoxetine) are shown for comparison against test compound. The study allowed for the evaluation of the effects of each compound on the Porsolt forced swim test as assessed by the rats' response (reduced floating time) during a 5-minute swimming test.
Male 2-3 month old Sprague Dawley rats were used (Harlan, Indianapolis, Ind.). Rats were housed in Lucite cages with aspen wood chip bedding, maintained on a 12:12 light:dark cycle (lights on at 5 AM), and given ad libitum access to Purina lab chow (USA) and tap water throughout the study.
The Porsolt forced swim test adapted for use in rats was performed as described by Burgdorf et al., (The long-lasting antidepressant effects of rapastinel (GLYX-13) are associated with a metaplasticity process in the medial prefrontal cortex and hippocampus. Neuroscience 308:202-211, 2015). Animals were placed in a 46 cm tall×20 cm in diameter clear glass tube filled to 30 cm with tap water (23±1° C.) for 15 min on the first day (habituation) and 5 min on the subsequent test day. Positive control fluoxetine was dosed 3 times (24 h, 5 h and 1 h) prior to testing. Animals were tested 1 h post-dosing with the test compounds or vehicle. Animals received a 15 min habituation session 1 day before the 5 min test. A subset of compounds tested at 1 h post-dosing were retested at 1 wk post-dosing in the same sets of animals. Water was changed after every other animal. Animals were videotaped, and floating time as defined as the minimal amount of effort required to keep the animals head above water was scored offline by a blinded experimenter with high inter-rater reliability (Pearson's r>0.9).
Each compound tested at dose level shown. Significance vs. vehicle group for each experiment is marked. […] A compound marked “No” was not statistically significant from vehicle. Data was averaged for test compound and vehicle groups (N approximately 8 per group) and the percent reduction in floating for group treated with test compound relative to group treated with vehicle is shown.

NMDAR2C = target: T4, NMDAR2C (Homo sapiens, UniProt Q14957); assay: [3H]MK-801 binding, NMDAR2C expressing HEK cell membranes; type: biochemical; details: 50 μM glutamate
T4 construct: expressed in transfected cells; host or cells: HEK cells (membrane extract)
Description: as §1, §2, §3, §4

[3] = 50 μM glutamate, read-out: NMDAR2A B: log EC50 (converted)
[4] = Sprague Dawley, plasma, po, normal saline (compounds marked * in 1% NMP and 99% normal saline)
[5] = Sprague Dawley, plasma, po, Tmax, normal saline (compounds marked * in 1% NMP and 99% normal saline)
[6] = normal saline (compounds marked * in 1% NMP and 99% normal saline)
[7] = 1 wk post-dose, 0.1 mg/kg; Yes = p<=0.05 from vehicle
[8] = 1 h post-dose, 0.1 mg/kg; Yes = p<=0.05 from vehicle
[9] = 50 μM glutamate, read-out: NMDAR2B B: log EC50 (converted)

SMILES | EC50 (NMDAR2A; [3]) [nM] | Emax (NMDAR2D) [%] | EC50 (NMDAR2D) [nM] | bioavailability ([1]; Sprague Dawley, plasma, po) [%] | AUC(0-t) [1, 4] [ng·h/mL] | Tmax [1, 5] [min] | CSF Cmax [1] [ng/mL] | Brain Cmax [1] [ng/mL] | EC50 (NMDAR2B; [9]) [nM] | NMDAR2A A: % maximal [3H]MK-801 binding relative to 1 mM glycine (NMDAR2A; 50 μM glutamate) | NMDAR2B A: % maximal [3H]MK-801 binding relative to 1 mM glycine (NMDAR2B; 50 μM glutamate) | AUC(0-t) (IV pharmacokinetics) [ng·h/mL] | clearance (IV pharmacokinetics) [mL/min/kg] | half-life (IV pharmacokinetics) [min] | C0 (IV pharmacokinetics) [ng/mL] | Vd (IV pharmacokinetics) [L/kg] | Cmax [1, 4] [ng/mL] | other results
C[C@@H](O)[C@H](N)C(=O)N1CCNC2(CNC2=O)C1 (single isomer, unassigned) [EK-1, 8-(L-Threonyl)-2,5,8-Triazaspiro[3.5]Nonan-1-One] | < 1 | < 100 | < 1 | 51 | 5740 | 100 | 7 | 0 | – | + (<100%=+) | − (−=0) | 2260 | 15 | 48 | 6460 | 0.4 | 1620 | –
O=C1NCC12CNCCN2Cc1ccccc1 (single isomer, unassigned) [ED-1, 5-Benzyl-2,5,8-Triazaspiro[3.5]Nonan-1-One] | – | < 100 | < 1 | – | – | – | – | – | – | – | − (−=0) | 1020 | 32.1 | 47.4 | 1180 | 1.88 | 2800 | Emax (NMDAR2A; 50 μM glutamate): 0%; % F [1]: 138%; AUClast [1, 6]: 7053.49 ng·h/mL; Tmax [1, 6]: 40.2 min
CN1CCN(Cc2ccccc2)C2(CCNC2=O)C1 (stereo not drawn) [ES-316] | – | – | – | 55 | 3030 | 15 | 430.2 | 1583 | – | + (<100%=+) | + (<100%=+) | 1110 | 30.6 | 138 | 2090 | 1.75 | 2770 | EC50 (NMDAR2A; read-out: NMDAR2A B: log EC50 (converted), 50 μM glutamate): < 1 nM; EC50 (NMDAR2B; read-out: NMDAR2B B: log EC50 (converted), 50 μM glutamate): < 1 nM; % reduction in float time ([2]; 1 wk post-dose, 0.1 mg/kg, relative to vehicle group; 0.1 mg/kg): 42.4%; Significance vs. vehicle [2, 7]: Yes; % reduction in float time ([2]; 1 h post-dose, 0.1 mg/kg, relative to vehicle group; 0.1 mg/kg): 49.4%; Significance vs. vehicle [2, 8]: Yes
O=C1NCC12CN(Cc1ccccc1)CCN2Cc1ccccc1 (single isomer, unassigned) [EA-1, 5,8-Dibenzyl-2,5,8-Triazaspiro[3.5]Nonan-1-One] | < 1 | 0 | – | – | – | – | – | – | < 1 | + (<100%=+) | + (<100%=+) | – | – | – | – | – | – | –

Now from value to molecule, other results behind:

EC50 (NMDAR2A; [3]) [nM] | Emax (NMDAR2D) [%] | EC50 (NMDAR2D) [nM] | bioavailability ([1]; Sprague Dawley, plasma, po) [%] | AUC(0-t) [1, 4] [ng·h/mL] | Tmax [1, 5] [min] | CSF Cmax [1] [ng/mL] | Brain Cmax [1] [ng/mL] | EC50 (NMDAR2B; [9]) [nM] | SMILES | NMDAR2A A: % maximal [3H]MK-801 binding relative to 1 mM glycine (NMDAR2A; 50 μM glutamate) | NMDAR2B A: % maximal [3H]MK-801 binding relative to 1 mM glycine (NMDAR2B; 50 μM glutamate) | AUC(0-t) (IV pharmacokinetics) [ng·h/mL] | clearance (IV pharmacokinetics) [mL/min/kg] | half-life (IV pharmacokinetics) [min] | C0 (IV pharmacokinetics) [ng/mL] | Vd (IV pharmacokinetics) [L/kg] | Cmax [1, 4] [ng/mL] | other results
< 1 | < 100 | < 1 | – | – | – | – | – | – | C[C@@H](O)[C@H](N)C(=O)N1CCN(C(=O)OC(C)(C)C)CC12CNC2=O (single isomer, unassigned) [EC-1, Tert-Butyl 5-(L-Threonyl)-1-Oxo-2,5,8-Triazaspiro[3.5]Nonane Carboxylate] | – | – | – | – | – | – | – | – | Emax (NMDAR2A; 50 μM glutamate): < 100%; Emax (NMDAR2B; 50 μM glutamate, read-out: NMDAR2B A: % maximal [3H]MK-801 binding relative to 1 mM glycine): 0%
– | 0 | – | – | – | – | – | – | < 1 | C[C@@H](O)[C@H](N)C(=O)N1CCN(Cc2ccccc2)C2(CNC2=O)C1 (single isomer, unassigned) [EL-2, 8-(L-Threonyl)-5-Benzyl-2,5,8-Triazaspiro[3.5]Nonan-1-One] | – | – | – | – | – | – | – | – | NMDAR2C A: % maximal [3H]MK-801 binding relative to 1 mM glycine (NMDAR2C): + (<100%=+); EC50 (NMDAR2C; read-out: NMDAR2C B: log EC50 (converted)): < 1 nM
< 1 | – | – | 72 | 6470 | 19.8 | 520 | 758 | < 1 | CC(=O)N1CCN(Cc2ccccc2)C2(CCNC2=O)C1 (stereo not drawn) [ES-319] | + (<100%=+) | + (<100%=+) | 1790 | 18.2 | 279 | 2770 | 1.74 | 4760 | % reduction in float time ([2]; 1 wk post-dose, 0.1 mg/kg, relative to vehicle group): 60.5%; Significance vs. vehicle [2, 7]: Yes; % reduction in float time ([2]; 1 h post-dose, 0.1 mg/kg, relative to vehicle group): 76.3%; Significance vs. vehicle [2, 8]: Yes
